Measurements published in patent publication US7314940B2, “Jun kinase inhibitors” (Eisai Co., Ltd., priority 2001, dated 2008).

Assays:
Format in all cases: biochemical
JNK1 = JNK1 (Homo sapiens, UniProt P45983); experiment: JNK1 SPA assay; conditions: phosphorylation of GST-c-Jun, 2 μM ATP
Protocol: (§1) JNK1, JNK2, JNK3—SPA Assay
(§2) • 1. Compound is dissolved in DMSO to a convenient concentration and this is diluted in 10% DMSO to a five times concentrate of the desired starting concentration (frequently 1: 100). • 2. 10 μl of 500 mM EDTA is added to alternative wells of the Opti-plate row, which will receive kinase reaction plus DMSO. This creates the negative control. • 3. For the JNK2 and JNK3 assay, compounds are prepared in six 2-fold dilutions with water and each concentration is tested in duplicate. For the JNK1 assay compounds are prepared in four 5-fold dilutions with water which are tested in triplicate. Controls are treated identically. • 4. 20 μl per well of each compound concentration is transferred to an Opti-plate, in duplicate. • 5. 30 μl (JNK2/3 SPA) or 50 μl (JNK1 SPA) of substrate solution (25 mM HEPES pH 7.5, 10 mM magnesium acetate with 3.33 μM ATP (JNK2/3) or 2 μM ATP (JNK1), approximately 7.5 kBq [γ-^33P] ATP, GST-c-Jun, in water) is added to each well. • 6. 50 μl (JNK2/3 SPA) or 30 gl (JNK1 SPA) of kinase solution (JNK in 25 mM HEPES pH 7.5, 10 mM Mg Acetate) is added to each well.
(§3) • 7. The plate is incubated for 30 minutes at room temperature. • 8. 100 μl of bead/stop solution is added to each well (5 mg/ml glutathione-PVT-SPA beads, 40 mM ATP in PBS). • 9. Plates are sealed and incubated for 30 minutes at room temperature, centrifuged for 10 minutes at 2500 g and counted. • 10. The IC50 values are calculated as the concentration of the compound being tested at which the phosphorylation of c-Jun is decreased to 50% of the control value.

p38 MAP kinase = molecular target: T1, p38 MAP kinase (Homo sapiens, UniProt Q16539); experiment: p38 ELISA; conditions: phosphorylation of GST-ATF2, 50 μM ATP
T1 construct: purchased Upstate
Protocol: Active p38 kinase (100 ng; Upstate) was added to 2 μg GST-ATF2 substrate (NEB) in 250 mM Hepes pH 7.5/100 mM MgAc/50 μM ATP (final) in the presence or absence of compounds in 50 μl. The mixture was incubated at 30° C. for 1 hour, and then diluted with 200 μl PBS-Tween (0.05%). From this, duplicate volumes of 100 μl were added to a Reacti-Bind glutathione coated plate (Pierce) and incubated for 1 hour. After washing 3 times with PBS-Tween (0.05%), rabbit anti-phospho-ATF2 (Thr71) antibody (NEB) was added at 1:500, and incubated for another hour at room temperature. After 3 additional washes with PBS-Tween (0.05%), 100 μl of anti-rabbit IgG alkaline phosphatase-conjugated secondary antibody (Sigma) was added at 1:1000, the reaction was incubated for a further hour, washed 3 times, and then phosphatase substrate (Sigma) was added (100 μl per well; 3 tablets in 5 ml water). After incubation in the dark at 37° C. for 1 hour, the reaction mixture was transferred to a clear 96 well plate, and the absorbance at 405 nm was read. The IC50 values are calculated as the concentration of the compound being tested at which the phosphorylation of ATF2 is decreased to 50% of the control value.

JNK3 = JNK3 (Homo sapiens, UniProt P53779); experiment: JNK3 SPA assay; conditions: phosphorylation of GST-c-Jun, 3.33 μM ATP
Protocol: as §1, §2, §3

JNK2 = JNK2 (Homo sapiens, UniProt P45984); experiment: JNK2 SPA assay; conditions: phosphorylation of GST-c-Jun, 3.33 μM ATP
Protocol: as §1, §2, §3

JNK3, sequence (P53779 whole entry): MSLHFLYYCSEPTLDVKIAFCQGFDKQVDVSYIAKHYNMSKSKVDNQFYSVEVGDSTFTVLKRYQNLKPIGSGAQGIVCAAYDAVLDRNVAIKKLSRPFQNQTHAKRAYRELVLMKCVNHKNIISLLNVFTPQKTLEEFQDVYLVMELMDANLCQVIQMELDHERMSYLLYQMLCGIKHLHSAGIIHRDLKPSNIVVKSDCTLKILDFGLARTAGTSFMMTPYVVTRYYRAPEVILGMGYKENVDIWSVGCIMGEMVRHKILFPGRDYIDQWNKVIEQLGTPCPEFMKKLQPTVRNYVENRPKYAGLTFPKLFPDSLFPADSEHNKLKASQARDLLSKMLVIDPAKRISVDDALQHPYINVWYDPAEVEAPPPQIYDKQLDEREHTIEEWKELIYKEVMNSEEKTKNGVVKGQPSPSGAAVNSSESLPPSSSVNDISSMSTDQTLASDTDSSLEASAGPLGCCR
JNK1, sequence (P45983 whole entry): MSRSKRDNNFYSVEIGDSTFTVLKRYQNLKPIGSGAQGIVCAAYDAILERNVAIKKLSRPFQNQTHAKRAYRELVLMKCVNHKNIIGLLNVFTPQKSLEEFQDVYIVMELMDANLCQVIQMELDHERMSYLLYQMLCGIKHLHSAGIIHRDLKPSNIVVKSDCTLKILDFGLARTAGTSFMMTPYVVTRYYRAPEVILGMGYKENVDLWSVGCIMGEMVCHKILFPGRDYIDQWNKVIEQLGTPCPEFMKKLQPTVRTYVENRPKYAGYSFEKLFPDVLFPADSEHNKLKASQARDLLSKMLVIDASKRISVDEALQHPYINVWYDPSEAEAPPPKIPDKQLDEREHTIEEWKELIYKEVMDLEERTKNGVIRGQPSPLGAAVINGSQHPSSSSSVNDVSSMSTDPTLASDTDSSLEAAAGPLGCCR
T1 sequence (Q16539 whole entry): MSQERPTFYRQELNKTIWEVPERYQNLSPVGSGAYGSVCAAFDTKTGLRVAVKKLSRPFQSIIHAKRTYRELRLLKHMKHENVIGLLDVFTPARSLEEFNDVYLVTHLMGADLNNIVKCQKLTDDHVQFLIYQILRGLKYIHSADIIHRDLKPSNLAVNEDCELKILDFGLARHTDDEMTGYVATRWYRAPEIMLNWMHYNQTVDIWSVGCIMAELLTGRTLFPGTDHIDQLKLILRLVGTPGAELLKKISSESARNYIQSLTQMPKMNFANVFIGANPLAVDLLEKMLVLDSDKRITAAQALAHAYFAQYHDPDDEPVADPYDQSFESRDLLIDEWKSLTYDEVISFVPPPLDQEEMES
JNK2, sequence (P45984 whole entry): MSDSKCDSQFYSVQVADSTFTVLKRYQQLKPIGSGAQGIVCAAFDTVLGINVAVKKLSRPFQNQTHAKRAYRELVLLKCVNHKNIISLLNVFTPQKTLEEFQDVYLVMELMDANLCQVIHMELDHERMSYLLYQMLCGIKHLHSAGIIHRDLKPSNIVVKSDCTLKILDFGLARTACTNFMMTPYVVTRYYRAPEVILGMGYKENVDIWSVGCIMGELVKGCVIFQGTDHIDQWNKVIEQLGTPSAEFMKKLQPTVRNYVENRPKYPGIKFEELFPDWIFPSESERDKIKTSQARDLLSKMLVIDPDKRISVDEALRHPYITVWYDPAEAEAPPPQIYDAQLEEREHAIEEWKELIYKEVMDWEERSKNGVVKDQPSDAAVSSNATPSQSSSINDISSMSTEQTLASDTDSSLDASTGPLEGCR

| SMILES | IC50 (JNK1) | IC50 (p38 MAP kinase) | IC50 (JNK3) | IC50 (JNK2) |
| --- | --- | --- | --- | --- |
| CCCNc1nccc(-c2c(-c3ccc(F)cc3)nc3n2[C@H](COc2ccc4ccccc4n2)CC3)n1 | 183 nM | 270 nM | 88 nM | 52 nM |
| CCCNc1nccc(-c2c(-c3ccc(F)cc3)nc3n2[C@@H](COc2ccc4ccccc4n2)CC3)n1 |  |  | 295 nM |  |
| CCCNc1nccc(-c2c(-c3ccc(F)cc3)nc3n2[C@H](Cn2ccc4ccccc42)CC3)n1 | 636 nM | 619 nM | 91 nM | 250 nM |
| CCCNc1nccc(-c2c(-c3ccc(F)cc3)nc3n2[C@@H](Cn2ccc4ccccc42)CC3)n1 |  |  | 150 nM |  |
| CCNc1nccc(-c2c(-c3ccc(F)cc3)nc3n2[C@H](Cn2ccc4cccc(F)c42)CC3)n1 | 125 nM | 696 nM | 61 nM | 125 nM |
| CCNc1nccc(-c2c(-c3ccc(F)cc3)nc3n2[C@H](COc2ncccn2)CC3)n1 | 313 nM | 185 nM | 29 nM | 125 nM |
| O=C(NC[C@@H]1CCc2nc(-c3ccc(F)cc3)c(-c3ccnc(NC4CCC4)n3)n21)c1ccccc1 | 412 nM |  | 54 nM | 83 nM |
| Fc1ccc(-c2nc3n(c2-c2ccnc(NC4CCC4)n2)[C@H](COc2ccnc4ccccc24)CC3)cc1 | 249 nM |  | 71 nM | 114 nM |
| CCNc1nccc(-c2c(-c3ccc(F)cc3)nc3n2[C@H](COc2ccc4cccc([N+](=O)[O-])c4n2)CC3)n1 | 137 nM |  | 86 nM | 38 nM |
| Cc1cc(OC[C@@H]2CCc3nc(-c4ccc(F)cc4)c(-c4ccnc(NC5CCC5)n4)n32)c2ccccc2n1 | 78 nM |  | 25 nM | 30 nM |
| Fc1ccc(-c2nc3n(c2-c2ccnc(NC4CCC4)n2)[C@H](CNc2ccccn2)CC3)cc1 | 524 nM |  | 38 nM | 126 nM |
| CCNc1nccc(-c2c(-c3ccc(F)cc3)nc3n2[C@H](Cn2cccc2)CC3)n1 | 27 nM | 59 nM | 14 nM | 13 nM |
| Fc1ccc(-c2nc3n(c2-c2ccnc(NC4CCC4)n2)[C@H](/C=C/c2cccs2)CC3)cc1 | 248 nM |  | 53 nM |  |
| Fc1ccc(-c2nc3n(c2-c2ccnc(NC4CCC4)n2)[C@H](Cn2ccnc2)CC3)cc1 | 22 nM |  | 7 nM |  |
| Fc1ccc(SC[C@@H]2CCc3nc(-c4ccc(F)cc4)c(-c4ccnc(NC5CCC5)n4)n32)cc1 | 92 nM |  | 8 nM |  |
| COc1ccc(CSC[C@@H]2CCc3nc(-c4ccc(F)cc4)c(-c4ccnc(NC5CCC5)n4)n32)cc1 | 94 nM | 148 nM | 30 nM |  |
| Fc1ccc(-c2nc3n(c2-c2ccnc(NC4CCC4)n2)[C@H](CC2CCCC2)CC3)cc1 |  |  | 10 nM |  |
| CCNc1nccc(-c2c(-c3ccc(F)cc3)nc3n2[C@H](CN2C(=O)CCC2=O)CC3)n1 |  |  | 17 nM |  |
| O=C1CCC(=O)N1C[C@@H]1CCc2nc(-c3ccc(F)cc3)c(-c3ccnc(NC4CCC4)n3)n21 | 60 nM |  | 6 nM |  |
| COc1ccc(COC[C@@H]2CCc3nc(-c4ccc(F)cc4)c(-c4ccnc(NC5CCC5)c4)n32)cc1 |  |  | 23 nM |  |
| COc1ccc(COC[C@H]2CCc3nc(-c4ccc(F)cc4)c(-c4ccnc(NC5CCC5)c4)n32)cc1 |  |  | 301 nM |  |
